“Also recorded” adds a separate entry of the source. Structures can show the parent of a compound that is named as a salt. Where two headings read alike, the source gives them in different places.
Columns and labels:
[1] = stability studies and metabolite identification in mice and human microsomes; conditions: for metabolic stability (in words): mice and human microsomes
[2] = cited from earlier work
[3] = cited from earlier work; remark: listed apart in the source
[4] = tested on: 5XFAD mice; assay: fear conditioning test in 5XFAD mice; type: in vivo, mouse; conditions: 5XFAD mice at 8 months, 10 mg/kg ip daily for 5 months, listed as 1 (PDDC)
[5] = in vitro metabolic stability, human liver microsomes; conditions: pH 7.4

metabolic stability (in words) [1]	SMILES	other results
metabolically unstable	COc1ccc(-c2c(C)nc3c(N4CCCC4)cc(C)nn23)cc1OC [Compound 76c, 3-(3,4-Dimethoxyphenyl)-2,6-dimethyl-8-(pyrrolidin-1-yl)imidazo[1,2-b]pyridazine]	
generally stable	COc1ccc(-c2c(C)nc3c(N4CC[C@@H](NC(=O)Nc5ccccc5)C4)cc(C)nn23)cc1OC [Compound 59, (R)-1-(1-(3-(3,4-Dimethoxyphenyl)-2,6-dimethylimidazo[1,2-b]pyridazin-8-yl)pyrrolidin-3-yl)-3-phenylurea]	
generally stable	CCCCCC(=O)N[C@@H]1CCN(c2cc(C)nn3c(-c4ccc(OC)c(OC)c4)c(C)nc23)C1 [Compound 53, (R)-N-(1-(3-(3,4-Dimethoxyphenyl)-2,6-dimethylimidazo[1,2-b]pyridazin-8-yl)pyrrolidin-3-yl)hexanamide Hydrochloride]	
reasonable metabolic stability	CC(=O)N[C@@H]1CCN(c2cc(C)nn3c(-c4ccc(OC(F)(F)F)cc4)c(C)nc23)C1 [Compound 47, (R)-N-(1-(2,6-Dimethyl-3-(4-(trifluoromethoxy)-phenyl)imidazo[1,2-b]pyridazin-8-yl)pyrrolidin-3-yl)acetamide]	
generally stable	COc1ccc(-c2c(C)nc3c(N4CC[C@@H](NC(=O)C(F)(F)F)C4)cc(C)nn23)cc1OC [Compound 52, (R)-N-(1-(3-(3,4-Dimethoxyphenyl)-2,6-dimethylimidazo[1,2-b]pyridazin-8-yl)pyrrolidin-3-yl)-2,2,2-trifluoroacetamide]	

Second part, the molecule before the results:

SMILES	metabolic stability (in words) [1]	other results
COc1ccc(-c2c(C)nc3c(N4CC[C@@H](NS(=O)(=O)C5CC5)C4)cc(C)nn23)cc1OC [Compound 66, (R)-N-(1-(3-(3,4-Dimethoxyphenyl)-2,6-dimethylimidazo[1,2-b]pyridazin-8-yl)pyrrolidin-3-yl)cyclopropanesulfonamide]	generally stable; also recorded: completely stable	
COc1ccc(-c2c(C)nc3c(N4CC[C@@H](NS(=O)(=O)c5cccs5)C4)cc(C)nn23)cc1OC [Compound 73, (R)-N-(1-(3-(3,4-Dimethoxyphenyl)-2,6-dimethylimidazo[1,2-b]pyridazin-8-yl)pyrrolidin-3-yl)thiophene-2-sulfonamide]	generally stable; also recorded: completely stable	
COc1cc(-c2nc(-c3cccs3)c(-c3ccccc3)[nH]2)cc(OC)c1O [DPTIP]		oral bioavailability (in words) [2]: not orally bioavailable; brain penetration (in words) ([2]; vs PDDC): poor brain penetration
O=c1[nH]c(=S)[nH]c(-c2ccccc2)c1Cc1c(O)ccc2ccccc12 [cambinol]		metabolic stability (in words) [3]: poor metabolic stability
COc1ccc(-c2c(C)nc3c(N4CC[C@@H](NC(=O)Oc5ccccc5)C4)cc(C)nn23)cc1OC [Compound 1, Phenyl(R)-(1-(3-(3,4-Dimethoxyphenyl)-2,6-dimethylimidazo[1,2-b]pyridazin-8-yl)pyrrolidin-3-yl)carbamate]	generally stable	contextual fear memory (freezing, day 2) [4]: performed like WT controls; remaining at 1 h, 1 µM [5]: 103 ± 14%; metabolite identification (MET-ID) ([1]; human and mouse liver microsomes, Figure S1): O-demethylated metabolite

Source: paper PMC8025741 (Journal of medicinal chemistry, 2020)
